# Results reported in PubChem BioAssay AID330 (DTP/NCI, 2004).
# “And” between values parts separate entries of the source, which are not always exact repeats. Equal values may be shown once. Inconclusive results and toxic doses are left out.
# System: P388 leukemia ip, CD2F1 mice, survival T/C
# Assay: NCI In Vivo Anticancer Drug Screen. Data for tumor model P388 Leukemia (intraperitoneal) in CD2F1 (CDF1) mice
# Settings: endpoint: median survival time, higher = longer survival
# Summary of the method: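 Mice carrying the transplanted tumor received test compound or vehicle. Survival was recorded in each group, and the value is the treated-group measurement divided by that of the vehicle-treated control group.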
# [1] = dose: 12.5 mg/kg/injection, schedule: Q01DX009 (ip), vehicle: Klucel (hydroxypropylcellulose) (HPC)
# [2] = dose: 50.0 mg/kg/injection, schedule: Q01DX009 (ip), vehicle: saline
# [3] = dose: 200.0 mg/kg/injection, schedule: Q01DX009 (ip), vehicle: saline
# [4] = dose: 25.0 mg/kg/injection, schedule: Q01DX005 (ip), vehicle: saline with Tween-80
# [5] = dose: 25.0 mg/kg/injection, schedule: Q01DX009 (ip), vehicle: Klucel (hydroxypropylcellulose) (HPC)
# [6] = dose: 60.0 mg/kg/injection, schedule: Q01DX005 (ip), vehicle: Klucel (hydroxypropylcellulose) (HPC)
# [7] = dose: 120.0 mg/kg/injection, schedule: Q01DX005 (ip), vehicle: Klucel (hydroxypropylcellulose) (HPC)
# [8] = dose: 60.0 mg/kg/injection, schedule: Q01DX005 (ip), vehicle: saline
# [9] = dose: 120.0 mg/kg/injection, schedule: Q01DX005 (ip), vehicle: saline
# [10] = dose: 240.0 mg/kg/injection, schedule: Q01DX005 (ip), vehicle: saline
# [11] = dose: 50.0 mg/kg/injection, schedule: Q01DX005 (ip), vehicle: Klucel (hydroxypropylcellulose) (HPC)
# [12] = dose: 100.0 mg/kg/injection, schedule: Q01DX005 (ip), vehicle: Klucel (hydroxypropylcellulose) (HPC)
# [13] = dose: 200.0 mg/kg/injection, schedule: Q01DX005 (ip), vehicle: Klucel (hydroxypropylcellulose) (HPC)
# [14] = dose: 100.0 mg/kg/injection, schedule: Q01DX001 (ip), vehicle: Klucel (hydroxypropylcellulose) (HPC)
# [15] = dose: 50.0 mg/kg/injection, schedule: Q01DX005 (ip), vehicle: saline with Tween-80
# [16] = dose: 100.0 mg/kg/injection, schedule: Q01DX005 (ip), vehicle: saline with Tween-80
# [17] = dose: 200.0 mg/kg/injection, schedule: Q01DX005 (ip), vehicle: saline with Tween-80
# [18] = dose: 60.0 mg/kg/injection, schedule: Q01DX005 (ip), vehicle: saline with Tween-80
# [19] = dose: 120.0 mg/kg/injection, schedule: Q01DX005 (ip), vehicle: saline with Tween-80
# [20] = dose: 240.0 mg/kg/injection, schedule: Q01DX005 (ip), vehicle: saline with Tween-80
# [21] = dose: 12.5 mg/kg/injection, schedule: Q01DX009 (ip), vehicle: saline
# [22] = dose: 25.0 mg/kg/injection, schedule: Q01DX009 (ip), vehicle: saline
# [23] = dose: 50.0 mg/kg/injection, schedule: Q01DX009 (ip), vehicle: Klucel (hydroxypropylcellulose) (HPC)
# [24] = dose: 240.0 mg/kg/injection, schedule: Q01DX005 (ip), vehicle: Klucel (hydroxypropylcellulose) (HPC)
smiles,measurement,setting,value
CCCCCCCCC(=O)c1c(OC)oc(/C=N/O)cc1=O,T/C,[1],87 % of control
O=Nc1c[nH]c(=O)[nH]c1=O,T/C,[2],97 % of control
same,T/C,"dose: 100.0 mg/kg/injection, schedule: Q01DX009 (ip), vehicle: saline",98 % of control
same,T/C,[3],100 % of control
O=C1CCC(=O)c2c1c(O)c1c(O)ccc(O)c1c2O,T/C,"dose: 6.25 mg/kg/injection, schedule: Q01DX005 (ip), vehicle: saline with Tween-80",96 % of control
same,T/C,"dose: 12.5 mg/kg/injection, schedule: Q01DX005 (ip), vehicle: saline with Tween-80",87 % of control
same,T/C,[4],94 % of control
[Cl][Pt+2][Cl].[NH-]c1cccc(C(F)(F)F)c1.[NH-]c1cccc(C(F)(F)F)c1,T/C,"dose: 3.12 mg/kg/injection, schedule: Q01DX009 (ip), vehicle: Klucel (hydroxypropylcellulose) (HPC)",103 % of control and 111 % of control
same,T/C,"dose: 6.25 mg/kg/injection, schedule: Q01DX009 (ip), vehicle: Klucel (hydroxypropylcellulose) (HPC)",97 % of control
same,T/C,[1],111 % of control
same,T/C,[5],106 % of control
COc1cc2c(c(=O)c3ccccc3n2C)c2c1c(=O)c1ccccc1n2C,T/C,[6],96 % of control
same,T/C,[7],98 % of control
CCCCCCC(C)OC(=O)OCCOCCOC(=O)OC(C)C(=O)OCCCC (centres undefined),T/C,[8],100 % of control
same,T/C,[9],94 % of control
same,T/C,[10],100 % of control
CN(C)c1ccc(C(=N)c2ccc(N(C)C)cc2)cc1 (tested in a mixture with another compound),T/C,"dose: 25.0 mg/kg/injection, schedule: Q01DX009 (ip), vehicle: saline with Tween-80",100 % of control
same,T/C,"dose: 50.0 mg/kg/injection, schedule: Q01DX009 (ip), vehicle: saline with Tween-80",95 % of control
same,T/C,"dose: 100.0 mg/kg/injection, schedule: Q01DX009 (ip), vehicle: saline with Tween-80",100 % of control
CCc1ccc(O)c(CN2CCN(Cc3cc(CC)ccc3O)CC2)c1,T/C,"dose: 15.0 mg/kg/injection, schedule: Q01DX005 (ip), vehicle: saline with Tween-80",89 % of control
same,T/C,"dose: 30.0 mg/kg/injection, schedule: Q01DX005 (ip), vehicle: saline with Tween-80",86 % of control
Nc1cc(O)c(O)c2c1C(=O)c1c(O)c(O)cc(N)c1C2=O,T/C,[11],102 % of control
same,T/C,[12],105 % of control
same,T/C,[13],99 % of control
CC1=CC(C)(C2(C)C=C(C)NC(=O)N2)NC(=O)N1 (centres undefined),T/C,"dose: 25.0 mg/kg/injection, schedule: Q01DX001 (ip), vehicle: Klucel (hydroxypropylcellulose) (HPC)",99 % of control
same,T/C,"dose: 50.0 mg/kg/injection, schedule: Q01DX001 (ip), vehicle: Klucel (hydroxypropylcellulose) (HPC)",98 % of control
same,T/C,[14],99 % of control
CN(C)CCCN1c2ccccc2Sc2ccccc21,T/C,"dose: 18.75 mg/kg/injection, schedule: Q01DX009 (ip), vehicle: saline with Tween-80",111 % of control
same,T/C,"dose: 18.75 mg/kg/injection, schedule: Q01DX009 (ip), vehicle: saline",112 % of control
same,T/C,"dose: 37.5 mg/kg/injection, schedule: Q01DX009 (ip), vehicle: saline with Tween-80",123 % of control
same,T/C,"dose: 37.5 mg/kg/injection, schedule: Q01DX009 (ip), vehicle: saline",109 % of control
COC1=CC(=O)C(c2cc(O)c(OC)cc2O)=CC1=O,T/C,"dose: 12.0 mg/kg/injection, schedule: Q01DX005 (ip), vehicle: saline with Tween-80",114 % of control
same,T/C,[4],108 % of control
same,T/C,[15],99 % of control
CC(N[Si](c1ccccc1)(c1ccccc1)C(C)(C)C)c1ccccc1 (centres undefined),T/C,[15],98 % of control
same,T/C,[16],97 % of control
same,T/C,[17],97 % of control
CC1(O)Cc2ccc3c(c2C(=O)C1O)C(=O)c1cccc(O)c1C3=O (centres undefined),T/C,"dose: 3.12 mg/kg/injection, schedule: Q01DX005 (ip), vehicle: distilled water + Tween-80 + alcohol",98 % of control
same,T/C,"dose: 6.25 mg/kg/injection, schedule: Q01DX005 (ip), vehicle: distilled water + Tween-80 + alcohol",100 % of control
same,T/C,"dose: 12.5 mg/kg/injection, schedule: Q01DX005 (ip), vehicle: distilled water + Tween-80 + alcohol",100 % of control
same,T/C,"dose: 25.0 mg/kg/injection, schedule: Q01DX005 (ip), vehicle: distilled water + Tween-80 + alcohol",100 % of control
C[C@H]1C[C@](C)(CO)Oc2oc3ccccc3c(=O)c21,T/C,[18],108 % of control
same,T/C,[19],109 % of control
same,T/C,[20],111 % of control
O=C1CCCC2=C1[Se]C1(O2)C(=O)CCCC1=O,T/C,[21],102 % of control
same,T/C,[22],101 % of control
same,T/C,[2],104 % of control and 107 % of control
Cc1ccc(S(=O)(=O)OCOS(=O)(=O)c2ccc(C)cc2)cc1,T/C,[5],101 % of control
same,T/C,[23],120 % of control and 121 % of control
same,T/C,"dose: 100.0 mg/kg/injection, schedule: Q01DX009 (ip), vehicle: Klucel (hydroxypropylcellulose) (HPC)",122 % of control
same,T/C,"dose: 200.0 mg/kg/injection, schedule: Q01DX009 (ip), vehicle: Klucel (hydroxypropylcellulose) (HPC)",123 % of control
same,T/C,"dose: 400.0 mg/kg/injection, schedule: Q01DX009 (ip), vehicle: Klucel (hydroxypropylcellulose) (HPC)",160 % of control
CCCCC1/C(=C/C(=O)c2ccccc2)Nc2ccccc2N1C(=O)c1ccccc1 (centres undefined),T/C,[6],97 % of control
same,T/C,[7],89 % of control
same,T/C,[24],90 % of control
COCCN1C(N)=C(C#N)N=C2CCCC(N=C(C#N)C#N)=C21,T/C,[15],100 % of control
same,T/C,[16],107 % of control
same,T/C,[17],101 % of control
O=[N+]([O-])c1cc(F)cc([N+](=O)[O-])c1O,T/C,[1],102 % of control
same,T/C,[5],102 % of control
same,T/C,[23],112 % of control
CCOc1ccc(N=NC2C(=O)N(c3cccc(Cl)c3Cl)C(=S)N(c3ccccc3)C2O)cc1 (centres undefined),T/C,[14],99 % of control
same,T/C,"dose: 200.0 mg/kg/injection, schedule: Q01DX001 (ip), vehicle: Klucel (hydroxypropylcellulose) (HPC)",100 % of control
same,T/C,"dose: 400.0 mg/kg/injection, schedule: Q01DX001 (ip), vehicle: Klucel (hydroxypropylcellulose) (HPC)",97 % of control
Clc1ccc2c(c1)C(c1ccccc1Cl)=NCC(SCCN1CCOCC1)=N2,T/C,[8],107 % of control
same,T/C,[9],101 % of control
same,T/C,[10],112 % of control
CSc1nc(C#N)c(/N=C\N(C)C)s1,T/C,[11],100 % of control
same,T/C,[12],99 % of control
same,T/C,[13],100 % of control
CCN(CC)C1C(Br)c2ccccc2C(OC)N1C#N (centres undefined),T/C,"dose: 50.0 mg/kg/injection, schedule: Q01DX005 (ip), vehicle: distilled water + Tween-80 + alcohol",103 % of control
same,T/C,"dose: 100.0 mg/kg/injection, schedule: Q01DX005 (ip), vehicle: distilled water + Tween-80 + alcohol",107 % of control
O=C(O)O.[Eu],T/C,[2],95 % of control
same,T/C,[3],93 % of control
COc1ccc(C(=O)C(CCC(=O)c2ccc(O)cc2)S(C)(=O)=O)cc1 (centres undefined),T/C,[11],100 % of control
same,T/C,[12],93 % of control
same,T/C,[13],96 % of control
Cc1ccc(NSC(Cl)(Cl)Cl)cc1,T/C,[21],100 % of control
same,T/C,"dose: 12.5 mg/kg/injection, schedule: Q01DX009 (ip), vehicle: suspension in saline",100 % of control
same,T/C,[22],100 % of control
same,T/C,"dose: 25.0 mg/kg/injection, schedule: Q01DX009 (ip), vehicle: suspension in saline",100 % of control
same,T/C,[2],104 % of control and 123 % of control
same,T/C,"dose: 50.0 mg/kg/injection, schedule: Q01DX009 (ip), vehicle: suspension in saline",97 % of control
same,T/C,"dose: 100.0 mg/kg/injection, schedule: Q01DX009 (ip), vehicle: suspension in saline",87 % of control
NC(N)=NCC(N)C(=O)O (centres undefined),T/C,[11],101 % of control
same,T/C,[12],104 % of control
same,T/C,[13],104 % of control
C=C(C)C(=O)NC(N)=NC#N,T/C,[6],122 % of control
CCOC(=O)c1cnc2cc(C(F)(F)F)ccc2c1N=[N+]=[N-],T/C,[18],99 % of control
same,T/C,[19],96 % of control
same,T/C,[20],96 % of control
c1ccc2c(c1)CCc1cc(CN3CCOCC3)ccc1N2,T/C,[6],111 % of control
same,T/C,[7],108 % of control
same,T/C,[24],105 % of control
